Molecules are shown by their SMILES.

The record followed here is US10834951B2, “Organic compounds” (GIVAUDAN SA, priority 2013, dated 2020).

Assay [1] is described as follows: Tasting by a professional panel in diluted low salt soy sauce. As to the method: Kikkoman low salt soy sauce was diluted 100 times. Part of the solution was kept as the reference. To another part was dosed a compound of formula (I). The solutions were tasted by a professional panel.
5.a: 0.1 ppm of 5-oxo-1-stearoylpyrrolidine-2-carboxylic acid (C18:0 pyro-Glu) was added to tap water containing 1% salt reduced kikoman soy sauce (9% salt).
5.b: 0.5 ppm of 5-oxo-1-palmitoylpyrrolidine-2-carboxylic acid (C16:0 pyro-Glu) was added to salt reduced kikoman soy sauce (9% salt).

Assay [2] can be described thus: Tasting in chicken bouillon base (0.7% salt, 0.5% fat). The method, then: A compound of formula (I) in a concentration as indicated below was added to a chicken bouillon base (0.7% salt, 0.5% fat). The resultant composition was compared with a chicken bouillon without a compound of formula (I).
Assay [3] in a line: Tasting in fried potato snack product with cheese seasoning (35% fat). The method, then: A snack product consisting of a fried potato base, containing 35% fat and flavored with cheese seasoning containing salt, MSG, dairy, organic acids, sugars, and a flavour formulation. A compound of formula (I) was added to the snack product at the indicated levels and the tasting results are reported as follows (compared with a snack product without a compound of formula (I)): […]

Assay [4] in a line: Expert tasting in mango flavoured still beverage. As to the method: In a Mango flavoured still beverage, sweetened with 8% sucrose & containing 0.1% citric acid and 1% clear mango juice flavoured with proprietary Mango flavour @ 0.05%, C16:0 pyro-Glu and C18:2-Theanine were added, as such (separate) and in combination.
All samples were evaluated by expert tasters. Tasters were asked to describe the samples focusing on authentic taste, juicy mouthfeel, enhancement, richness, juiciness, long lastingness, salivation, sweetness.
*Base: water, 8% sucrose, 0.1% citric acid, 1% clear mango juice (i.e. very low juice concentration), flavoured with Mango flavor (dosed at 0.05%).

The nature of assay [5]: Expert tasting in orange flavoured Tang powdered soft drink. The method, then: In an orange flavoured Tang powdered soft drink (market product) sweetened with sucrose plus high intensity sweetener and containing citric acid, C18:0 pyro-Glu, and C18:2-Theanine were tested.
All samples were evaluated by expert tasters. Tasters were asked to describe the samples focusing on authentic taste, mouthfeel & body, enhancement, richness, juiciness, long lastingness, salivation, sweetness, masking off notes of high intensity sweetener.

The nature of assay [6]: Tasting in brewed green tea against reference. As to the method: A green tea was brewed by taking 0.6 g of tea/100 ml of water. The water was heated to 80° C. and the tea leaves were left in the solution for 5 minutes. The tea solution was allowed to cool down to room temperature. Part of the solution was kept as a reference. To another part was added a compound of formula (I) in a concentration as indicated below. The solutions were tasted against the reference (i.e. a green tea without a compound of formula (I)).

The mark [7] stands for this setting: 0.5 ppm in chicken bouillon base.

For the compound `CCCCCCCCCCCCCCCC(=O)N1C(=O)CCC1C(=O)O` (stereo not shown) [C16:0 pyro-Glu, 5-oxo-1-palmitoylpyrrolidine-2-carboxylic acid], the “taste description versus reference” value in assay [1] (0.5 ppm in salt reduced kikoman soy sauce (9% salt)) is “a stronger saltiness and to be more lingering, more umami”. In assay [2] (setting [7]), the “taste description versus chicken bouillon without compound” value is “Nice strong salty, umami lingering body, better meat profile”. In assay [3] (0.5 ppm in cheese flavoured fried potato snack), the “taste description versus snack product without compound” value is given as “more rich, more cheesy, more umami. More salty”. In assay [4] (0.1 ppm in mango still beverage base), the “taste description by expert tasters” value is “very juicy and long lasting sweet, salivating”.
Consider `CCCCCCCCCCCCCCCCCC(=O)N1C(=O)CCC1C(=O)O` (stereo not shown) [C18:0 pyro-Glu, 5-oxo-1-stearoylpyrrolidine-2-carboxylic acid], for which the “taste description versus reference without the compound” value in assay [1] (0.1 ppm in tap water containing 1% salt reduced kikoman soy sauce (9% salt)) is “more body and to be more umami, more salty, longer lasting and richer”. The “taste description versus chicken bouillon without compound” value in assay [2] (0.2 ppm in chicken bouillon base) is listed as “More umami lingering body, more salty, more rich”. For the same compound, the “taste description versus snack product without compound” value in assay [3] (1 ppm in cheese flavoured fried potato snack) was “more full, more cheesy, longer lasting, more salty”. The “taste description by expert tasters” value in assay [5] (0.1 ppm in orange flavoured Tang base) is “enhanced fruitiness, enhanced mouthfeel. Additionally, the off-notes of the high intensity sweetener were suppressed”. The “taste description versus green tea reference” value in assay [6] (0.2 ppm in green tea) is “more complex and had more mouthfeel”.
In the case of `CCCCC/C=C\C/C=C\CCCCCCCC(=O)NC(CCC(=O)NCC)C(=O)O` (stereo not shown) [C18:2-Theanine, 5-(ethylamino)-2-[(9Z,12Z)-octadeca-9,12-dienoylamino]-5-oxopentanoic acid], the “taste description versus chicken bouillon without compound” value in assay [2] (setting [7]) is “More body and fatty notes, salivating”. Besides, the “taste description versus snack product without compound” value in assay [3] (0.1 ppm in cheese flavoured fried potato snack) is on record as “more fatty, more umami, more succulent”. Besides, the “taste description by expert tasters” value in assay [5] (1 ppm in orange flavoured Tang base) was “enhances sweet juicy orange notes,more body, more mouthfeel. Additionally, the off-notes of the high intensity sweetener were suppressed”; in assay [4] (1 ppm in mango still beverage base), “fatty skin-like, very juicy, authentic mango, more mouthfeel, long lasting mango taste”. In addition, the “taste description versus green tea reference” value is “better green tea character, was less bitter and had a better mouthfeel” in assay [6] (0.02 ppm in green tea); “more authentic tea than the reference and to have a nice balance between bitterness and astringency” in assay [6] (1 ppb in green tea); “more astringent, more body and somewhat more bitter umami than the reference” in assay [6] (10 ppb in green tea).
